# Measurements from US11360080B2, “AhR-ROR-γt complex as a biomarker and therapeutic target for autoimmune disease and IL-17A-associated disease” (NATIONAL HEALTH RESEARCH INSTITUTES, priority 2018, dated 2022).
# Legend:
# AhR-RORγt complex = assay: Proximity ligation assay (PLA) in peripheral blood T cells of SLE and RA patients; format: cell-based, human; settings: 5 μM for 30 min
# Experimental: (A) Luciferase activity of NF-κB-driven reporter assays in stable GLK-transfected CHO-K1 cells that were treated with or without the GLK inhibitor C1 (verteporfin) under the indicated concentration. The fold changes are presented relative to the value of vector control. (B) Recombinant proteins of GLK kinase domain plus recombinant proteins of GST-tagged kinase-dead PKCθ (K409W) were subjected to in vitro kinase assays in the presence or absence of the GLK inhibitor C1 (verteporfin). Means±SD of are shown. *, P value<0.05; **, P value<0.01 (two-tailed Student's t-test). (C) The AhR-RORγt complex was inhibited by the GLK inhibitor. […] (D) Quantification of the PLA signals of (C). […]
# PLA assays were performed using the DUOLINK® In Situ Red Starter kit (Sigma) according to the manufacturer's instructions. […] After ligation and amplification reactions, the PLA signals from each pair of PLA probes in close proximity (<40 nm) were visualized as individual red dots by a fluorescence microscope (Leica DM2500) or a confocal microscope (Leica TCS SP5II). […]
# T cells of Lck-GLK transgenic mice, GLK-overexpressing T cells, activated T cells or AhR+RORγt+IKKβ-overexpressing cells were used. […] After ligation and amplification reactions, the PLA signals from each pair of PLA probes in close proximity ([…]) were visualized as individual red dots by a fluorescence or a confocal microscope. […]
# Lck-GLK Tg mice = assay: Treatment of Lck-GLK Tg mice, serum ELISA; format: in vivo, mouse; settings: 0.556 nmole/g i.v. every 3 days for 30 days
# Text: (A to C) Effect of the GLK inhibitor C1 (verteporfin) administration (0.556 nmole/g every 3 days for 30 days) on serum IL-17A and autoantibodies in Lck-GLK Tg mice. (B) ELISA of indicated serum cytokines in Lck-GLK Tg mice treated with C1 (verteporfin) or PBS. (C) ELISA of serum autoantibodies in Lck-GLK Tg mice treated with C1 (verteporfin) or PBS. Means±SEM are shown. (D) Experimental autoimmune encephalomyelitis (EAE) induction in wild-type mice treated with PBS, or the GLK inhibitor C1 (verteporfin) and C2. Clinical scores are presented on a scale of 1 to 5 (left panel). ELISA of IL-17A in the sera from MOG-immunized mice at day 16 (right panel). (E) Collagen-induced arthritis (CIA) induction in wild-type mice treated with the GLK inhibitor C1 (verteporfin) or PBS. Clinical scores are presented on a scale of 1 to 16 (left panel). ELISA of IL-17A in the sera from collagen-immunized mice at day 28. […]
# Serum levels of IL-1β, IL-4, IL-6, IL-12, IL-17F, IL-21, IL-22, IL-23, IFN-γ, TNF-α, and TGF-β were analyzed by individual ELISA kits purchased from eBioscience. The IL-17A levels were determined using an ELISA kit from Biolegend. The serum levels of anti-nuclear antibodies (ANA), anti-dsDNA antibody, and rheumatoid factor (RF) were analyzed by ELISA kits purchased from Alpha Diagnostic International. […]
# CIA in wild-type mice = assay: Collagen-induced arthritis (CIA) induction in wild-type mice; format: in vivo, mouse
# Text: (A to C) Effect of the GLK inhibitor C1 (verteporfin) administration (0.556 nmole/g every 3 days for 30 days) on serum IL-17A and autoantibodies in Lck-GLK Tg mice. (B) ELISA of indicated serum cytokines in Lck-GLK Tg mice treated with C1 (verteporfin) or PBS. (C) ELISA of serum autoantibodies in Lck-GLK Tg mice treated with C1 (verteporfin) or PBS. Means±SEM are shown. (D) Experimental autoimmune encephalomyelitis (EAE) induction in wild-type mice treated with PBS, or the GLK inhibitor C1 (verteporfin) and C2. Clinical scores are presented on a scale of 1 to 5 (left panel). ELISA of IL-17A in the sera from MOG-immunized mice at day 16 (right panel). (E) Collagen-induced arthritis (CIA) induction in wild-type mice treated with the GLK inhibitor C1 (verteporfin) or PBS. Clinical scores are presented on a scale of 1 to 16 (left panel). ELISA of IL-17A in the sera from collagen-immunized mice at day 28. Means±SEM are shown. *, P value<0.05; **, P value<0.01; ***, P value<0.001 (two-tailed Student's […]). C1 denotes verteporfin; C2 denotes alexidine dihydrochloride.
# Moreover, overproduction of autoantibodies in Lck-GLK Tg mice were also abolished by C1 (verteporfin) treatment (FIG. 10C). […] To further verify that the GLK inhibitors also works in IL-17A-mediated animal models, we challenged wild-type mice with C1 (verteporfin) or C2 (alexidine dihydrochloride) during EAE and CIA induction.
# [1] = test system: splenic T cells (Th17 differentiation); assay: In vitro Th17 differentiation, flow cytometry of IL-17A-producing CD4+ T cells; format: cell-based, mouse; settings: 1 or 5 μM during differentiation
# Experimental: (§1) (A) Flow cytometry of IL-17A-producing CD4^+ T cells. Splenic T cells were co-treated with verteporfin (C1) (1 or 5 μM) during Th17 differentiation in vitro. (B) Flow cytometry of IL-17A-producing CD4^+ T cells. Murine in vitro differentiated Th17 cells were stimulated with PMA plus ionomycin and co-treated with verteporfin (C1) (1 or 5 μM) for 30 min. (C) Flow cytometry of Foxp3-producing […] T cells. Splenic T cells were co-treated with verteporfin (C1) (5 μM) during Treg differentiation in vitro. (D) Flow cytometry of Foxp3-producing CD4^+ T cells, which were differentiated from CD4^+ T cells of wild-type or Lck-GLK transgenic mice.
# CD4^+ splenic T cells were purified from mice. Cells (5×10^5) were cultured in 1 ml RPMI medium in 48-well plates coated with anti-CD3 (2 μg/ml) and anti-CD28 (3 μg/ml) antibodies. For Th17 differentiation, splenic CD4^+ cells were cultured in the medium containing IL-23 recombinant proteins (50 ng/ml, R&D), IL-6 recombinant proteins (20 ng/ml, R&D), TGF-β recombinant proteins (5 ng/ml, R&D), anti-IL-4 (5 μg/ml, Biolegend), and anti-IFN-γ (5 μg/ml, Biolegend) antibodies. For Th1 differentiation, CD4^+ splenic cells were cultured in the medium containing IL-12 recombinant proteins (5 ng/ml, R&D) and anti-IL-4 antibodies (1 μg/ml, Biolegend).
# [2] = test system: in vitro differentiated Th17 cells; assay: IL-17A production of in vitro differentiated Th17 cells, flow cytometry; format: cell-based, mouse; settings: PMA plus ionomycin, 1 or 5 μM for 30 min
# Experimental: as §1
smiles,measurement,setting,value
"C=Cc1c(C)c2cc3nc(cc4[nH]c(cc5nc(cc1[nH]2)C(C)=C5CCC(=O)O)c(CCC(=O)OC)c4C)[C@@]1(C)C3=CC=C(C(=O)OC)[C@H]1C(=O)OC [C1, verteporfin]",AhR-RORγt complex in T cells from SLE and RA patients,AhR-RORγt complex,blocked
same,PLA signals (quantification) of AhR with RORγt or phospho-RORγt (S489),AhR-RORγt complex,inhibited
same,overproduction of autoantibodies,Lck-GLK Tg mice,abolished
same,serum IL-17A levels,Lck-GLK Tg mice; vs PBS,significantly decreased
same,serum IL-17A levels in CIA,CIA in wild-type mice; day 28,inhibited
same,disease severity (clinical score) in CIA,"CIA in wild-type mice; mouse, in vivo",inhibited
same,Th17 differentiation,[1],inhibited
same,IL-17A production from in vitro differentiated Th17 cells,[2],inhibited
